PMC4290489, “Identification of multiple salicylic acid-binding proteins using two high throughput screens” (Frontiers in Plant Science, 2015)

Columns and labels:
Assay type in all cases: binding
TRX-m1 = molecular target: T1, TRX-m1 (Arabidopsis thaliana, UniProt O48737); experiment: UV photo-crosslinking, anti-SA immunoblot; conditions: 50 uM 4AzSA, PBS, on ice, 254 nm UV; covalent; competed by SA
T1 construct: gene At1g03680; N-terminal His6 (pET28a), from E. coli
T1 sequence (O48737 49-179): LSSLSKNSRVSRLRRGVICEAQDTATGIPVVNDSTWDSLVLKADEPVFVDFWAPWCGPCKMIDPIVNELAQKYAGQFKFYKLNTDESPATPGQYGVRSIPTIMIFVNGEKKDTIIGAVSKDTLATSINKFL

NPR1 = molecular target: T2, NPR1 (Arabidopsis thaliana, UniProt P93002); experiment: UV photo-crosslinking, anti-SA immunoblot; conditions: 50 uM 4AzSA, PBS, on ice, 254 nm UV; covalent; competed by SA
T2 construct: N-terminal His6-MBP fusion (pET-MALHT), from E. coli, Ni-NTA and gel filtration
T2 sequence (P93002 1-593): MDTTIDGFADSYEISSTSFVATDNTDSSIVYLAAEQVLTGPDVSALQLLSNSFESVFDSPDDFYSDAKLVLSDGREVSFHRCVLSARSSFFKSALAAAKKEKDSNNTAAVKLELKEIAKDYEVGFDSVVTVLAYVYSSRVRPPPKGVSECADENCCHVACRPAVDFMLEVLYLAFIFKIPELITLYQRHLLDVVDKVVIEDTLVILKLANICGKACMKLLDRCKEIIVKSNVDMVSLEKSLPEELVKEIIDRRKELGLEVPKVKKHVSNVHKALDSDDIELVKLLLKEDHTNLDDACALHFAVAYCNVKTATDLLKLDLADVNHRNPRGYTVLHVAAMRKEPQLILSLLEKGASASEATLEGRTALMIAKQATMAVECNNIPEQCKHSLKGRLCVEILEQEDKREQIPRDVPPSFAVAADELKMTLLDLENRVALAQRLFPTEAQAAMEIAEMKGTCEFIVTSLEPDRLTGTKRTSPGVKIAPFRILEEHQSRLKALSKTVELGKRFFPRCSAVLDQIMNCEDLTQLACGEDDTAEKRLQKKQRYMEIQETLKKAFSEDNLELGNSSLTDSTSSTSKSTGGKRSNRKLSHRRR

HPR2 [1] = molecular target: T3, HPR2 (Arabidopsis thaliana, UniProt Q9CA90); experiment: UV photo-crosslinking, anti-SA immunoblot; conditions: 50 uM 4AzSA, PBS, on ice, 254 nm UV; covalent; competed by SA
T3 construct: N-terminal His6 (pET28a), from E. coli
T3 sequence (Q9CA90 1-313): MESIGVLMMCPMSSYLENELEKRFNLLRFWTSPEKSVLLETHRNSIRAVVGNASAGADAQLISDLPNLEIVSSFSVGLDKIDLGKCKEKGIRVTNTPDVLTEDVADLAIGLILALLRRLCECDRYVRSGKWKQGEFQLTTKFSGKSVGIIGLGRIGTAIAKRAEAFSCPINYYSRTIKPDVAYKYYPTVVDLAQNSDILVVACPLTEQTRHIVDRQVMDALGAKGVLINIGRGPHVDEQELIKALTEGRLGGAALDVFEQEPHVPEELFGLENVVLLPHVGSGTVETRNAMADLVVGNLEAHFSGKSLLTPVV

HPR2 [2] = molecular target: T3, HPR2; experiment: SPR competition on 3AESA chip; competition of 4AzSA photo-crosslinking; conditions: 1-5 mM SA, HBS-EP pH 7.4 (SPR); competes with 3AESA and 4AzSA
GSR2 = molecular target: T4, GSR2 (Arabidopsis thaliana, UniProt Q8LCE1); experiment: as above; conditions: 1-5 mM SA, HBS-EP pH 7.4 (SPR); competes with 3AESA and 4AzSA
T4 construct: gene GLN1-2; N-terminal His6 (pET28a), from E. coli
T4 sequence (Q8LCE1 1-356): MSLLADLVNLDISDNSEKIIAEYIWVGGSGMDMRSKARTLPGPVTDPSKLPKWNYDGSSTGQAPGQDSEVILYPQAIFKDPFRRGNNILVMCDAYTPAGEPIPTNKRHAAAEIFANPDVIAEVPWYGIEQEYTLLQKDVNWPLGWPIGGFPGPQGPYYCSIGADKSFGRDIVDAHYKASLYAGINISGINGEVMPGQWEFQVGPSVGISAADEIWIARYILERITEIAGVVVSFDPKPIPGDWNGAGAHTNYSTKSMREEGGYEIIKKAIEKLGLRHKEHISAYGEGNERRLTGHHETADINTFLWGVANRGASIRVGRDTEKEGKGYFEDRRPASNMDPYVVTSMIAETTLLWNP

Row | SMILES | UV photo-crosslinking, anti-SA immunoblot (TRX-m1) | UV photo-crosslinking, anti-SA immunoblot (NPR1) | UV photo-crosslinking, anti-SA immunoblot (HPR2 [1]) | SPR competition on 3AESA chip; competition of 4AzSA photo-crosslinking (HPR2 [2]) | SPR competition on 3AESA chip; competition of 4AzSA photo-crosslinking (GSR2)
1 | [N-]=[N+]=Nc1ccc(C(=O)O)c(O)c1 [4AzSA] | These five proteins also bound and crosslinked to 4AzSA | NPR1 bound and was crosslinked to 4AzSA; this crosslinking was suppressed by increasing levels of SA | bound 3AESA and crosslinked to 4AzSA in an SA-inhibitable manner, indicating that they are SABPs |  | 
2 | O=C(O)c1ccccc1O [SA] |  |  |  | bound 3AESA and crosslinked to 4AzSA in an SA-inhibitable manner, indicating that they are SABPs | bound 3AESA and crosslinked to 4AzSA in an SA-inhibitable manner, indicating that they are SABPs
